Values after ≈ are worked out from the molar mass of the structure shown.
Legend:
[1] = in vivo
Protocol: Later, this drug served as the parental compound for the generation of novel covalently binding CDK7-directed warheads (Figure 2A, panels a–h). To reveal LDC4297, a chemical library was designed in silico for the targeting of kinases and was applied for screening against human CDK7–cyclin H–MAT1 by the use of in vitro kinase assays. […] In particular, a kinome-wide analysis with 333 individual kinases was performed to assess compound selectivity in vitro.
(A) Chemical linkage of an acceptor for the Michael 1,4 addition reaction was performed to generate QRS compounds 6, 7, and 9. Through the covalent binding of host target CDK7, a block of virus-supportive functions was achieved, and further details on this antiviral strategy were described elsewhere (a,b; c,d, this study, and Yu et al., in preparation; d–f; f–h). (B) Determination of in vitro eADME parameters (early […]-distribution-metabilism-excretion) and pharmacokinetics (PK) parameters, including mean plasma concentrations in vivo (male CD-1® mice).

[2] = Caco-2 permeability assay; type: in vitro ADME; settings: human
[3] = Plasma protein binding, human; type: in vitro ADME; settings: read-out: Plasma protein binding (% bound) human (converted)
[4] = type: in vitro ADME
[5] = PAMPA; type: in vitro ADME; settings: pH 7.4
[6] = tested on: human CDK7–cyclin H–MAT1; parameters: method as in PMID 25624324; settings: cited from earlier work
[7] = tested on: HCMV AD169-GFP; parameters: method as in PMID 25624324; settings: read-out: antiviral EC50 value (HCMV); cited from earlier work
[8] = Solubility (SolRank); type: physicochemical; settings: pH 7.4
[9] = Plasma protein binding, mouse; type: in vitro ADME; settings: read-out: Plasma protein binding (% bound) mouse (converted)
[10] = type: in vitro ADME; remark: listed apart in the source
[11] = tested on: HCMV-encoded vCDK/pUL97; parameters: method as in PMID 37591314; settings: cited from earlier work
[12] = target: T1, CDK7–cyclin H–MAT1 (Homo sapiens, UniProt P50613); parameters: method as in PMID 25624324; settings: kinome-wide panel of 333 kinases; cited from earlier work
T1 construct: purchased Invitrogen PR6749B

[13] = male, CD-1, mouse, in vivo, po, 100 mg/kg

T1 sequence (P50613 whole entry): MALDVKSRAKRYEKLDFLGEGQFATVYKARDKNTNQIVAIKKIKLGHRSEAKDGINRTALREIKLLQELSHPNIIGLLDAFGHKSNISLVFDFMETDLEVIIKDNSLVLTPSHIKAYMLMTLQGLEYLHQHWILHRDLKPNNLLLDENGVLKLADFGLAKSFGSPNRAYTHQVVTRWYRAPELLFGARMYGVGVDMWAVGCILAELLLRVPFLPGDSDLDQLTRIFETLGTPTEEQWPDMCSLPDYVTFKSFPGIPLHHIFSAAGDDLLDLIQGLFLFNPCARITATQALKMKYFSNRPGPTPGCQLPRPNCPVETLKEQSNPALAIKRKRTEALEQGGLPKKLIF
T1 sequence (P51946 whole entry partner): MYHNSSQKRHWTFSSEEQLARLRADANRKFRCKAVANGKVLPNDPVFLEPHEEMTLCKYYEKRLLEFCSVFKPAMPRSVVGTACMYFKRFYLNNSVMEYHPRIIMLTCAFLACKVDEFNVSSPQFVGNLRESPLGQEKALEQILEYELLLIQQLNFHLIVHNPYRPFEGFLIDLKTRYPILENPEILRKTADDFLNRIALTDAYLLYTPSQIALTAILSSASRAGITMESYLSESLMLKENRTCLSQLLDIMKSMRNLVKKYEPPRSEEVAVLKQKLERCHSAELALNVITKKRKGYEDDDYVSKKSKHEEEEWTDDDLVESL
T1 sequence (P51948 whole entry partner): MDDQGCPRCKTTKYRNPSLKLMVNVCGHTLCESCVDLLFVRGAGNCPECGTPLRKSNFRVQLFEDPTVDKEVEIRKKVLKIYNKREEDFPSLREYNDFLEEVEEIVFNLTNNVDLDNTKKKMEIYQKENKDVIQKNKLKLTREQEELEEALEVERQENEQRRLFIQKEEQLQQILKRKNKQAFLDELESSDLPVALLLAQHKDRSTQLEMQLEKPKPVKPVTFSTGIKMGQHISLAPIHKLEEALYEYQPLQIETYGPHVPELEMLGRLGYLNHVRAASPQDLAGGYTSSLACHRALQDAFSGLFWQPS

CC(C)c1cnn2c(NCc3ccccc3-n3cccn3)nc(OC3CCCNC3)nc12 (centres unmarked) [LDC4297]
AUC(0-inf) [1, 13]: 3620 ng·h/mL | AUC(0-t) [1, 13]: 3520 ng·h/mL | Cmax [1, 13]: 1300 ng/mL | Tmax [1, 13]: 0.5 h | bioavailability [1, 13]: 97.7% | half-life [1, 13]: 1.6 h | tz [1, 13]: 8 h | concentration at 8 h ([1]; male, CD-1, mouse, in vivo, po, 100 mg/kg, Cz, mouse 100 mg/kg p.o.): 43.2 ng/mL | concentration at 0 min ([1]; male, CD-1, mouse, in vivo, po, 100 mg/kg, Mean plasma concentration, mouse 100 mg/kg p.o., sampling time 0 min): 0 ng/mL | concentration at 30 min ([1]; male, CD-1, mouse, in vivo, po, 100 mg/kg, Mean plasma concentration, mouse 100 mg/kg p.o., sampling time 30 min): > 1200 ng/mL | concentration at 90 min ([1]; male, CD-1, mouse, in vivo, po, 100 mg/kg, Mean plasma concentration, mouse 100 mg/kg p.o., sampling time 90 min): 713 ± 411 ng/mL | concentration at 240 min ([1]; male, CD-1, mouse, in vivo, po, 100 mg/kg, Mean plasma concentration, mouse 100 mg/kg p.o., sampling time 240 min): 373 ± 108 ng/mL | concentration at 480 min ([1]; male, CD-1, mouse, in vivo, po, 100 mg/kg, Mean plasma concentration, mouse 100 mg/kg p.o., sampling time 480 min): 43.2 ± 44 ng/mL | Mean plasma concentration ([1]; mouse 100 mg/kg p.o., sampling time 30 min): 1297.6 ± 678.0 ng/mL | Papp A→B ([2]; A→B): 15.4 ×10⁻⁶ cm/s | efflux ratio ([2]; efflux ratio, read-out: Caco-2 permeability B→A / A→B): 1.57 | fraction unbound [3]: 0.142 | Plasma stability (% remain) mouse [4]: 100.0 % remain | PAMPA (% Flux) [5]: 76.25 % Flux | IC50 [6]: < 5 nM | EC50 [7]: 24.5 ± 1.3 nM | solubility [8]: 373 µM (≈ 162 µg/mL) | fraction unbound [9]: 0.0951 | Plasma stability (% remain) human [10]: 91.6 % remain | secondary targeting activity against vCDK/pUL97 [11]: lack of a secondary targeting activity | residual activity in the presence of LDC4297 [12]: 2%
